Like-named read-outs stand apart in the source and are kept apart here.
Tests used:
[1] = test system: porcine kidney-derived LLC-PK1 cells; experiment: Protective effect against cell injury of porcine kidney-derived LLC-PK1 cells (1), oxidized LDL-induced LDH leakage; assay type: cell-based; settings: oxidized LDL 100 μg/ml, 6 hours; for % cytoprotection 1): test compounds added 16 hours before addition of oxidized LDL; for % cytoprotection 2): test compounds added immediately before addition of oxidized LDL
Procedure: For the purpose of evaluating in vitro cytoprotective effect of the compounds of the present invention, protective effect against cell injury of porcine kidney-derived LLC-PK1 cells (ATCC-CRL-13921) induced by oxidized low-density lipoprotein (oxidized LDL) was examined.
The oxidized LDL was prepared by placing 1 mg/ml of rabbit LDL in PBS (−) in the presence of 10 μM CuSO4 at 37° C. for 24 hours. Cell cultures were prepared by inoculating 1.25×10^4 cells/250 μl/well on a 48-well plate using M199 medium containing 3% FBS. Test compounds were dissolved or suspended in ethanol and added at a ratio of 1.25 μl/well 16 hours before or immediately before addition of the oxidized LDL to a concentration of 0.1, 1 or 10 μM in each well. The oxidized LDL was diluted twice with physiological saline and then added to cells at 62.5 μl/well to a concentration of 100 μg/ml and the cells were incubated for 6 hours after addition of the oxidized LDL. After the incubation, 162.5 μl of the culture medium was collected from each of the wells and measured for the lactate dehydrogenase (LDH) activity (Lactate Dehydrogenase (LD-L): SIGNA DIAGNOSTICS) which has leaked into the culture medium.
(§1) The cytoprotective effect was expressed as a % cytoprotection where the effect in wells containing the oxidized LDL but without any test compound is 0% and the effect in wells containing physiological saline in place of the oxidized LDL is 100%.

cultured mesangial cells = experiment: Protective effect against cell injury of cultured mesangial cells, oxidized LDL-induced LDH leakage; assay type: cell-based, rats
Procedure: For the purpose of evaluating in vitro cytoprotective effect of the compounds of the present invention, protective effect against cell injury of cultured mesangial cells induced by oxidized low-density lipoprotein (LDL) was examined. The cells used were subcultures after 4 to 6 passages of the primary cultures of mesangial cells prepared from kidney of 4-week-old SD-strain male rats (Nippon Charles River Corp.).
The oxidized LDL was prepared by placing 1 mg/ml of rabbit LDL in PBS (−) in the presence of 10 μM CuSO4 at 37° C. for 24 hours. Cell cultures were prepared by inoculating 2.5×10^4 cells/250 μl/well on a 48-well plate using RPMI1640 medium containing 20% FBS. Immediately before addition of test compounds, the medium was replaced with RPMI1640 free from FBS. Test compounds were dissolved or suspended in ethanol and added at 1.25 μl/well 16 hours before or immediately before addition of the oxidized LDL to a concentration of 1, 3 or 10 μM in each well. Unlike Test example 1, the oxidized LDL was not diluted with physiological saline and added to cells at 25 μl/well to a concentration of 91 μg/ml and the cells were incubated for 8 hours after addition of the oxidized LDL. After the incubation, 150 μl of the culture medium was collected from each of the wells and measured for the lactate dehydrogenase activity (Lactate Dehydrogenase (LD-L): SIGMA DIAGNOSTICS) which has leaked in the culture medium.
as §1

[2] = Rattus norvegicus, Mesangial cell; 1 μM; test compounds added 16 hours before addition of oxidized LDL; oxidized LDL 91 μg/ml, 8 hours; read-out: % cytoprotection 1)
[3] = Rattus norvegicus, Mesangial cell; 1 μM; test compounds added immediately before addition of oxidized LDL; oxidized LDL 91 μg/ml, 8 hours; read-out: % cytoprotection 2)
[4] = Rattus norvegicus, Mesangial cell; 3 μM; test compounds added 16 hours before addition of oxidized LDL; oxidized LDL 91 μg/ml, 8 hours; read-out: % cytoprotection 1)
[5] = Rattus norvegicus, Mesangial cell; 3 μM; test compounds added immediately before addition of oxidized LDL; oxidized LDL 91 μg/ml, 8 hours; read-out: % cytoprotection 2)

Row | Structure (SMILES) | % cytoprotection 1) ([1]; 0.1 μM) [%] | % cytoprotection 2) ([1]; 0.1 μM) [%] | % cytoprotection 1) ([1]; 1 μM) [%] | % cytoprotection 2) ([1]; 1 μM) [%] | % cytoprotection 1) ([1]; 10 μM) [%] | % cytoprotection 2) ([1]; 10 μM) [%] | inhibition at 1 µM (cultured mesangial cells; [2]) [%] | inhibition at 1 µM (cultured mesangial cells; [3]) [%] | inhibition at 3 µM (cultured mesangial cells; [4]) [%] | inhibition at 3 µM (cultured mesangial cells; [5]) [%]
1 | CC1Cc2c(c(C(C)(C)C)cc(O)c2C(C)(C)C)O1 (stereo not drawn) [Example 2, 4,7-Di-t-butyl-5-hydroxy-2-methyl-2,3-dihydrobenzofuran] | 24.4 | 27.1 | 101.2 | 101.5 | 101.0 | 99.9 | 35.6 ± 7.5 | 40.6 ± 8.2 | 60.5 ± 6.2 | 53.1 ± 5.7
2 | CC1(C)Cc2cc(O)c(C(C)(C)C)cc2O1 [Example 5, 6-t-Butyl-5-hydroxy-2,2-dimethyl-2,3-dihydrobenzofuran] | 77.6 | 18.2 | 103.4 | 100.8 | 100.6 | 101.7 | 34.2 ± 4.5 | 11.3 ± 2.4 | 42.3 ± 4.7 | 28.9 ± 2
3 | CC(C)(C)c1cc(O)c(C(C)(C)C)c2c1OCC2 [Example 1, 4,7-Di-t-butyl-5-hydroxy-2,3-dihydrobenzofuran] | 92.7 | 17.5 | 104.1 | 103.9 | 100.5 | 102.3 | 24.2 ± 9.3 | 40.3 ± 3.2 | 78.2 ± 13.4 | 69.7 ± 13.3
